Consider seven compounds from patent publication EP0411567A1, “5-(omega-Aminoacyl)-5,10-dihydro-11H-dibenzo[b,e][1,4]-diazepin-11-ones, processes for their preparation, and their use as medicaments” (ARZNEIMITTELWERK DRESDEN GmbH, priority 1989, dated 1991).

Counter-ions that a name gives are not always drawn. Like-named read-outs stand apart in the source and are kept apart here.

Data set [1] deals with CaCl₂-Arrhythmie der Ratte. In words: CaCl₂-induced arrhythmia in the rat (antifibrillatory effect). Conditions: iv; for ED50: Rattus norvegicus, read-out: CaCl₂-Arrhythmie Ratte, ED₅₀. In kind it is in vivo. An excerpt:
(§1) ED₅₀ i.v. = Dosis in mg/kg, welche die fibrillatorische Wirkung von CaCl₂ an Ratten nach I.v.-Applikation der Testsubstanz um 50 % unterdrückt. Berechnung nach der Probit-Regressionsanalyse mit Vertrauensbereich, p = 0,05 (Werte in Klammern) LD₅₀ i.v. = Letale Dosis in mg/kg bei 50 % der Versuchstiere einer orientierenden Bestimmung der akuten Toxizität an Wistarratten hauseigener Zucht, I.v.-Applikation in die Schwanzvene, 3 - 4 Dosierungen zu je 10 Tieren.

Data set [2] concerns Hunden, 24 Stunden nach zweistufiger Koronarligatur (Harris-Modell). The data set can be described thus: Two-stage coronary ligation in the dog (Harris model). The data set is classed as in vivo, Hund. Conditions: for Ektopische Kontraktionen in Prozent/min / Gesamtzahl der Herzkontraktionen/min: mean x; for Harris Hund Wirkungsdauer / Harris Hund eff. Dosis i.v.: dogs, 24 h after two-stage coronary ligation; for Harris Hund Wirkungsdauer: at the effective i.v. dose. The procedure:
Am Modell der zweistufigen Koronarligatur am Hund nach Harris (Methodik bei Kaverina und Mitarbeiter, Pharmazie 40, S. 845 (1985)) zeigen die Verbindungen der allgemeinen Formeln I, VII bzw. X eine starke und langanhaltende Wirkung (siehe Tabellen 2 und 3).
Bereits in der 5. Minute nach der intravenösen Injektion der Verbindungen der allgemeinen Formeln I, VII bzw. X in einer Konzentration von 0,005 mmol/kg (ca. 2,0 mg/kg) wird die ektopischeArrhythmie um das 2- bis 3-fache des Basiswertes unterdrückt, während die Gesamtzahl der Herzkontraktionen konstant bleibt. Die Wirkung auf die ektopische Arrhythmie hält 30 bis 60 Minuten lang an. Tabelle 1
(§2) Berechnung nach der Probit-Regressionsanalyse mit Vertrauensbereich, p = 0,05 (Werte in Klammern) [formula] zur Ermittlung der therapeutischen Breite eff. Dosis = effektive Dosis in mg/kg Wirkungsdauer = Wirkungsdauer in Minuten an Hunden, 24 h nach zweistufiger Koronarligatur
x = Mittelwert s = Standardabweichung ±

Data set [3] has as its system Wistarratten. In words: Orienting determination of acute toxicity in rats, i.v. In kind it is in vivo, Ratte. The note with it: therapeutic breadth; rat LD₅₀ i.v. / rat CaCl₂-arrhythmia ED₅₀.
From the text: Die Verbindungen der allgemeinen Formeln I, VII bzw.
as §1, §2

Data set [4] has as its system Hunden, 24 Stunden nach zweistufiger Koronarligatur (Harris-Modell). Conditions: Harris model, cited from earlier work.
The mark [5] stands for this setting: dose suppressing the fibrillatory effect of CaCl₂ by 50 %, probit regression, confidence range p = 0,05 in brackets.
The mark [6] stands for this setting: 30 min after 0,005 mmol/kg i.v.
[7] abbreviates: 60 min after 0,005 mmol/kg i.v.
The mark [8] stands for this setting: 120 min after 0,005 mmol/kg i.v.
The mark [9] stands for this setting: 180 min after 0,005 mmol/kg i.v.
The mark [10] stands for this setting: 300 min after 0,005 mmol/kg i.v.
Where [11] appears, read: 360 min after 0,005 mmol/kg i.v.
Setting [12] is: Basis (before injection), 0,005 mmol/kg group.
Where [13] appears, read: 5 min after 0,02 mmol/kg (5,4 mg/kg).
Where [14] appears, read: 30 min after 0,02 mmol/kg (5,4 mg/kg).
Setting [15] is: Basis (before injection), 0,02 mmol/kg (5,4 mg/kg) group.

With `O=C1Nc2cc(Cl)ccc2N(C(=O)CCCCCCN2CCOCC2)c2ccccc21` [Beispiel 9, 8-Chlor-5-(7-N-morpholinoönanthoyl)-5,10-dihydro-11H-dibenzo [b,e] [1,4]diazepin-11-on], the ED50 in data set [1] (setting [5]) was 0.16 mg/kg. Besides, the “Ektopische Kontraktionen in Prozent/min” value in data set [2] (5 min after 0,005 mmol/kg i.v.) is 21 Prozent; in data set [2] (setting [6]), 38 Prozent; in data set [2] (setting [7]) it was 42 Prozent; in data set [2] (setting [8]), 42 Prozent; in data set [2] (setting [9]) it was 73 Prozent; in data set [2] (setting [10]), 79 Prozent. Also, the “Ektopische Kontraktionen in Prozent/min” value came to 89 Prozent in data set [2] (setting [11]) and 90 Prozent in data set [2] (setting [12]). The “Gesamtzahl der Herzkontraktionen/min” value in data set [2] (5 min after 0,005 mmol/kg i.v.) turned out to be 179 min⁻¹; in data set [2] (setting [6]), 164 min⁻¹; in data set [2] (setting [7]), 168 min⁻¹; in data set [2] (setting [8]), 156 min⁻¹; in data set [2] (setting [9]), 159 min⁻¹; in data set [2] (setting [10]) it was 163 min⁻¹. For the same compound, the “Gesamtzahl der Herzkontraktionen/min” value was 180 min⁻¹ in data set [2] (setting [11]) and 156 min⁻¹ in data set [2] (setting [12]). In data set [2], the “Harris Hund Wirkungsdauer” value was 120 min. Also, the “Harris Hund eff. Dosis i.v.” value in data set [2] is recorded as 2,21 mg/kg. For the same compound, in data set [3], the “Q LD₅₀/ED₅₀” value amounted to 256.
`C=CC1CN2CCC1CC2C(O)c1ccnc2ccc(OC)cc12` (centres unmarked) [Chinidin]: the “CaCl₂-Arrhythmie Ratte, ED₅₀” value in data set [1] (in vivo) is on record as 2,7 (2,0 - 3,7) mg/kg. The “Harris Hund Wirkungsdauer” value in data set [4] (dogs, listed as whose dose is marked [1] (literature)) was 15 min. Also, the “Harris Hund eff. Dosis i.v.” value in data set [4] (dogs, value marked [1] (Mokler and van Arman 1962)) is 10,0 [1] mg/kg. In addition, in data set [4] (in words, literature [1]), the “Gesamtzahl der Herzkontraktionen” value is reported as “Abnahme” and the “ektopische Arrhythmie” value is listed as “Abnahme”.
For `CCN(CC)CCCC(=O)N1c2ccc(Cl)cc2NC(=O)c2ccccc21` [Beispiel 4, 8-Chlor-5-(4-diethylaminobutyryl)-5,10-dihydro-11H-dibenzo[b,e] [1,4]diazepin-11-on], the ED50 in data set [1] (setting [5]) stood at 0.044 mg/kg. Besides, the “Gesamtzahl der Herzkontraktionen/min” value came out at 175 min⁻¹ in data set [2] (5 min after 0,005 mmol/kg i.v.); 180 min⁻¹ in data set [2] (setting [6]); 181 min⁻¹ in data set [2] (setting [7]); 183 min⁻¹ in data set [2] (setting [8]); 183 min⁻¹ in data set [2] (setting [12]). For the same compound, the “Harris Hund Wirkungsdauer” value in data set [2] amounted to 30 min. Also, the “Harris Hund eff. Dosis i.v.” value in data set [2] is on record as 1,93 mg/kg. Moreover, the “Q LD₅₀/ED₅₀” value in data set [3] is reported as 1614.
Regarding `CCN(CC)CCCC(=O)N1c2ccccc2NC(=O)c2ccccc21` [Beispiel 2, 5-(4-Diethylaminobutyryl)-5,10-dihydro-11H-dibenzo[b,e]-[1,4]diazepin-11-on], the “Ektopische Kontraktionen in Prozent/min” value is 26 Prozent in data set [2] (5 min after 0,005 mmol/kg i.v.); 24 Prozent in data set [2] (setting [6]); 75 Prozent in data set [2] (setting [7]); 90 Prozent in data set [2] (setting [8]); 88 Prozent in data set [2] (setting [12]).
For `CN(C)CCCCCC(=O)N1c2ccccc2NC(=O)c2ccccc21` [Beispiel 1, 5-(6-Dimethylaminocapronyl)-5,10-dihydro-11H-dibenzo [b,e]-[1,4] diazepin-11-on·HCl], in data set [1] (setting [5]), the ED50 was 0.41 mg/kg. The “Ektopische Kontraktionen in Prozent/min” value was found to be 30 Prozent in data set [2] (5 min after 0,005 mmol/kg i.v.); 47 Prozent in data set [2] (setting [6]); 54 Prozent in data set [2] (setting [7]); 68 Prozent in data set [2] (setting [8]); 80 Prozent in data set [2] (setting [9]); 99 Prozent in data set [2] (setting [12]). For the same compound, the “Gesamtzahl der Herzkontraktionen/min” value amounted to 192 min⁻¹ in data set [2] (5 min after 0,005 mmol/kg i.v.); 193 min⁻¹ in data set [2] (setting [6]); 177 min⁻¹ in data set [2] (setting [7]); 175 min⁻¹ in data set [2] (setting [8]); 169 min⁻¹ in data set [2] (setting [9]); 164 min⁻¹ in data set [2] (setting [12]). Besides, the “Harris Hund Wirkungsdauer” value in data set [2] worked out at 60 min. Further, the “Harris Hund eff. Dosis i.v.” value in data set [2] is listed as 1,76 mg/kg. Moreover, in data set [3], the “Q LD₅₀/ED₅₀” value is listed as 207.
Take `CCN(CC)CC(=O)Nc1c(C)cccc1C` [Lidocain, reference compound]: the ED50 in data set [1] was determined as 3.1 mg/kg. For the same compound, in data set [2] (setting [13]), the “Ektopische Kontraktionen in Prozent/min” value came out at 34 Prozent and the “Gesamtzahl der Herzkontraktionen/min” value was 139 min⁻¹. Moreover, in data set [2] (setting [14]), the “Ektopische Kontraktionen in Prozent/min” value amounted to 78 Prozent and the “Gesamtzahl der Herzkontraktionen/min” value amounted to 138 min⁻¹. In data set [2] (setting [15]), the “Ektopische Kontraktionen in Prozent/min” value turned out to be 83 Prozent and the “Gesamtzahl der Herzkontraktionen/min” value was found to be 146 min⁻¹. Moreover, in data set [2], the “Harris Hund Wirkungsdauer” value is 15 min and the “Harris Hund eff. Dosis i.v.” value was 8,0 mg/kg. Also, in data set [2] (in words, Harris model), the “Gesamtzahl der Herzkontraktionen” value is given as “Abnahme” and the “ektopische Arrhythmie” value is “Abnahme”.
Regarding `CCN(CC)CCCCCC(=O)N1c2ccc(Cl)cc2NC(=O)c2ccccc21` [Beispiel 6, 8-Chlor-5-(6-diethylaminocapronyl)-5,10-dihydro-11H-dibenzo[be] [1,4]diazepin-11-on], the ED50 in data set [1] (setting [5]) worked out at 0.44 mg/kg. The “Ektopische Kontraktionen in Prozent/min” value in data set [2] (5 min after 0,005 mmol/kg i.v.) came out at 20 Prozent; in data set [2] (setting [6]), 4 Prozent; in data set [2] (setting [7]) it was 37 Prozent; in data set [2] (setting [8]), 76 Prozent; in data set [2] (setting [12]), 78 Prozent. For the same compound, the “Gesamtzahl der Herzkontraktionen/min” value is 170 min⁻¹ in data set [2] (5 min after 0,005 mmol/kg i.v.); 159 min⁻¹ in data set [2] (setting [6]); 162 min⁻¹ in data set [2] (setting [7]); 162 min⁻¹ in data set [2] (setting [8]); 167 min⁻¹ in data set [2] (setting [12]). In data set [2], the “Harris Hund Wirkungsdauer” value worked out at 60 min. Also, in data set [2], the “Harris Hund eff. Dosis i.v.” value was 2,07 mg/kg. The “Q LD₅₀/ED₅₀” value in data set [3] amounted to 86.
